Assay results published in ChEMBL document CHEMBL3885861, “Open TG-GATES”.

Species on record: Rattus norvegicus
Experiment: Open TG-GATES - Regimen: Daily Repeat
Type: toxicity, organism-based, Sprague-Dawley
Design: regimen Daily Repeat, gender Male, age 6 weeks
Settings: in vivo, po, route gavage; for APTT / Bas / Eos / Fbg / Hb / Lym / MCH / MCHC / MCV / Mono / Plat / RBC / Ret / WBC / Ht: tissue Blood; for KIDNEY_L / KIDNEY_R / KIDNEY_TOTAL: tissue Kidney; for ALP / ALT / AST / BUN / CRE / Ca / Cl / DBIL / GLC / IP / K / LDH / Na / PL / RALB / TBIL / TC / TG / TP / gamma-GTP: tissue Plasma
[1] = 0 mg/kg, 72 h, dose level Control, time 3 day
[2] = 0 mg/kg, […], dose level Control, time 7 day
[3] = 0 mg/kg, […], dose level Control, time 14 day
[4] = 0 mg/kg, […], dose level Control, time 28 day
[5] = 25 mg/kg, 72 h, dose level Low, time 3 day
[6] = 25 mg/kg, […], dose level Low, time 7 day
[7] = 25 mg/kg, […], dose level Low, time 14 day
[8] = 25 mg/kg, […], dose level Low, time 28 day

SMILES: O=C1CN(/N=C/c2ccc(-c3ccc([N+](=O)[O-])cc3)o2)C(O)=N1 [DANTROLENE]
- TERMINAL_BW [1]: 235.4 g
- APTT [1]: 16.8 s
- Bas [1]: 0%
- Eos [1]: 1%
- Fbg [1]: 224.8 mg/dL
- Hb [1]: 13.3 g/dL
- Lym [1]: 77%
- MCH [1]: 21.6 pg
- MCHC [1]: 33.6%
- MCV [1]: 64.2 fL
- Mono [1]: 6.6%
- Plat [1]: 128.8 x10_4/uL
- RBC [1]: 618.2 x10_4/ul
- Ret [1]: 6.6%
- WBC [1]: 113.2 x10_2/uL
- KIDNEY_L [1]: 1.1 g
- KIDNEY_R [1]: 1.1 g
- KIDNEY_TOTAL [1]: 2.2 g
- ALP [1]: 842.8 IU/L
- ALT [1]: 34 IU/L
- AST [1]: 62.8 IU/L
- BUN [1]: 19.2 mg/dL
- CRE [1]: 0.6 mg/dL
- Ca [1]: 10.9 mg/dL
- Cl [1]: 104 meq/L
- DBIL [1]: 0.004 mg/dL
- GLC [1]: 200.6 mg/dL
- IP [1]: 7.5 mg/dL
- K [1]: 4.7 meq/L
- LDH [1]: 85 IU/L
- Na [1]: 140.2 meq/L
- PL [1]: 158.6 mg/dL
- RALB [1]: 3.8 g/dL
- TBIL [1]: 0.3 mg/dL
- TC [1]: 78.4 mg/dL
- TG [1]: 114.8 mg/dL
- TP [1]: 5.8 g/dL
- gamma-GTP [1]: 1 IU/L
- TERMINAL_BW [2]: 269.1 g
- TERMINAL_BW [3]: 300.9 g
- TERMINAL_BW [4]: 379.1 g
- APTT [2]: 16.9 s
- Bas [2]: 0%
- Eos [2]: 1%
- Fbg [2]: 213 mg/dL
- Hb [2]: 14 g/dL
- Lym [2]: 78.2%
- MCH [2]: 21 pg
- MCHC [2]: 33.6%
- MCV [2]: 62.7 fL
- Mono [2]: 7.4%
- Plat [2]: 126.8 x10_4/uL
- RBC [2]: 666.4 x10_4/ul
- Ret [2]: 5.1%
- WBC [2]: 106.4 x10_2/uL
- APTT [3]: 17.6 s
- Bas [3]: 0%
- Eos [3]: 0.4%
- Fbg [3]: 201.8 mg/dL
- Hb [3]: 14.8 g/dL
- Lym [3]: 82.6%
- MCH [3]: 20.3 pg
- MCHC [3]: 33.3%
- MCV [3]: 61.1 fL
- Mono [3]: 3.8%
- Plat [3]: 112.9 x10_4/uL
- RBC [3]: 728.6 x10_4/ul
- Ret [3]: 3.7%
- WBC [3]: 110.6 x10_2/uL
- APTT [4]: 18.6 s
- Bas [4]: 0%
- Eos [4]: 1.4%
- Fbg [4]: 217.6 mg/dL
- Hb [4]: 15.6 g/dL
- Ht [4]: 46.2%
- Lym [4]: 84%
- MCH [4]: 19.5 pg
- MCHC [4]: 33.9%
- MCV [4]: 57.5 fL
- Mono [4]: 4.6%
- Plat [4]: 117 x10_4/uL
- RBC [4]: 803.2 x10_4/ul
- Ret [4]: 2.8%
- WBC [4]: 103.3 x10_2/uL
- KIDNEY_L [2]: 1.2 g
- KIDNEY_R [2]: 1.2 g
- KIDNEY_TOTAL [2]: 2.4 g
- KIDNEY_L [3]: 1.2 g
- KIDNEY_R [3]: 1.3 g
- KIDNEY_TOTAL [3]: 2.5 g
- KIDNEY_L [4]: 1.4 g
- KIDNEY_R [4]: 1.3 g
- KIDNEY_TOTAL [4]: 2.7 g
- ALP [2]: 931.4 IU/L
- ALT [2]: 33.4 IU/L
- AST [2]: 64.2 IU/L
- BUN [2]: 18.2 mg/dL
- CRE [2]: 0.5 mg/dL
- Ca [2]: 10.7 mg/dL
- Cl [2]: 106.8 meq/L
- DBIL [2]: 0.002 mg/dL
- GLC [2]: 204 mg/dL
- IP [2]: 7.2 mg/dL
- K [2]: 5.1 meq/L
- LDH [2]: 76.6 IU/L
- Na [2]: 138.6 meq/L
- PL [2]: 164.2 mg/dL
- RALB [2]: 3.8 g/dL
- TBIL [2]: 0.3 mg/dL
- TC [2]: 79.6 mg/dL
- TG [2]: 138.8 mg/dL
- TP [2]: 5.8 g/dL
- gamma-GTP [2]: 1.4 IU/L
- ALP [3]: 833.2 IU/L
- ALT [3]: 31.4 IU/L
- AST [3]: 61.6 IU/L
- BUN [3]: 17.8 mg/dL
- CRE [3]: 0.6 mg/dL
- Ca [3]: 10.5 mg/dL
- Cl [3]: 105.4 meq/L
- DBIL [3]: 0.012 mg/dL
- GLC [3]: 203.6 mg/dL
- IP [3]: 7.5 mg/dL
- K [3]: 4.5 meq/L
- LDH [3]: 82.6 IU/L
- Na [3]: 141.8 meq/L
- PL [3]: 139.2 mg/dL
- RALB [3]: 3.9 g/dL
- TBIL [3]: 0.3 mg/dL
- TC [3]: 62 mg/dL
- TG [3]: 85.8 mg/dL
- TP [3]: 5.9 g/dL
- gamma-GTP [3]: 0.8 IU/L
- ALP [4]: 628.6 IU/L
- ALT [4]: 30.6 IU/L
- AST [4]: 50.8 IU/L
- BUN [4]: 18 mg/dL
- CRE [4]: 0.6 mg/dL
- Ca [4]: 10.3 mg/dL
- Cl [4]: 106.8 meq/L
- DBIL [4]: 0.016 mg/dL
- GLC [4]: 187.8 mg/dL
- IP [4]: 6.5 mg/dL
- K [4]: 4.4 meq/L
- LDH [4]: 83.2 IU/L
- Na [4]: 140 meq/L
- PL [4]: 143.4 mg/dL
- RALB [4]: 3.8 g/dL
- TBIL [4]: 0.3 mg/dL
- TC [4]: 69.6 mg/dL
- TG [4]: 127.2 mg/dL
- TP [4]: 6.1 g/dL
- gamma-GTP [4]: 1.2 IU/L
- TERMINAL_BW [5]: 228.7 g
- APTT [5]: 19.4 s
- Bas [5]: 0%
- Eos [5]: 1%
- Fbg [5]: 221.4 mg/dL
- Hb [5]: 13.7 g/dL
- Lym [5]: 78%
- MCH [5]: 21.8 pg
- MCHC [5]: 33.8%
- MCV [5]: 64.6 fL
- Mono [5]: 8.4%
- Plat [5]: 138.1 x10_4/uL
- RBC [5]: 624.8 x10_4/ul
- Ret [5]: 5.3%
- WBC [5]: 107 x10_2/uL
- KIDNEY_L [5]: 1.1 g
- KIDNEY_R [5]: 1.1 g
- KIDNEY_TOTAL [5]: 2.2 g
- ALP [5]: 873.2 IU/L
- ALT [5]: 37.8 IU/L
- AST [5]: 75 IU/L
- BUN [5]: 19.6 mg/dL
- CRE [5]: 0.6 mg/dL
- Ca [5]: 10.8 mg/dL
- Cl [5]: 104.4 meq/L
- DBIL [5]: 0.004 mg/dL
- GLC [5]: 194.8 mg/dL
- IP [5]: 6.2 mg/dL
- K [5]: 4.5 meq/L
- LDH [5]: 102.4 IU/L
- Na [5]: 139.8 meq/L
- PL [5]: 151.8 mg/dL
- RALB [5]: 4 g/dL
- TBIL [5]: 0.3 mg/dL
- TC [5]: 73.8 mg/dL
- TG [5]: 122.4 mg/dL
- TP [5]: 5.8 g/dL
- gamma-GTP [5]: 0.6 IU/L
- TERMINAL_BW [6]: 252.5 g
- TERMINAL_BW [7]: 308.4 g
- TERMINAL_BW [8]: 376.7 g
- APTT [6]: 16.1 s
- Bas [6]: 0%
- Eos [6]: 1.2%
- Fbg [6]: 215 mg/dL
- Hb [6]: 14.4 g/dL
- Lym [6]: 79%
- MCH [6]: 20.9 pg
- MCHC [6]: 33.9%
- MCV [6]: 61.5 fL
- Mono [6]: 8%
- Plat [6]: 108.3 x10_4/uL
- RBC [6]: 689.4 x10_4/ul
- Ret [6]: 4.6%
- WBC [6]: 121.3 x10_2/uL
- APTT [7]: 17.2 s
- Bas [7]: 0%
- Eos [7]: 0.8%
- Fbg [7]: 222.2 mg/dL
- Hb [7]: 14.8 g/dL
- Lym [7]: 85.2%
- MCH [7]: 20.3 pg
- MCHC [7]: 33.8%
- MCV [7]: 60.1 fL
- Mono [7]: 4.8%
- Plat [7]: 122.4 x10_4/uL
- RBC [7]: 726.6 x10_4/ul
- Ret [7]: 3.9%
- WBC [7]: 111.4 x10_2/uL
- APTT [8]: 17.2 s
- Bas [8]: 0%
- Eos [8]: 1%
- Fbg [8]: 211 mg/dL
- Hb [8]: 15.6 g/dL
- Ht [8]: 45.9%
- Lym [8]: 82%
- MCH [8]: 20 pg
- MCHC [8]: 34%
- MCV [8]: 58.9 fL
- Mono [8]: 4.8%
- Plat [8]: 112.7 x10_4/uL
- RBC [8]: 779 x10_4/ul
- Ret [8]: 2.9%
- KIDNEY_L [6]: 1.1 g
- KIDNEY_R [6]: 1.2 g
- KIDNEY_TOTAL [6]: 2.3 g
- KIDNEY_L [7]: 1.2 g
- KIDNEY_R [7]: 1.3 g
- KIDNEY_TOTAL [7]: 2.5 g
- KIDNEY_L [8]: 1.4 g
- KIDNEY_R [8]: 1.5 g
- KIDNEY_TOTAL [8]: 2.9 g
- ALP [6]: 808 IU/L
- ALT [6]: 35 IU/L
- AST [6]: 68.8 IU/L
- BUN [6]: 17 mg/dL
- CRE [6]: 0.6 mg/dL
- Ca [6]: 10.8 mg/dL
- Cl [6]: 107.8 meq/L
- DBIL [6]: 0.014 mg/dL
- GLC [6]: 192.8 mg/dL
- IP [6]: 6.1 mg/dL
- K [6]: 5 meq/L
- LDH [6]: 121.4 IU/L
- Na [6]: 138.8 meq/L
- PL [6]: 151.4 mg/dL
- RALB [6]: 3.9 g/dL
- TBIL [6]: 0.4 mg/dL
- TC [6]: 77 mg/dL
- TG [6]: 92.6 mg/dL
- TP [6]: 5.7 g/dL
- gamma-GTP [6]: 1 IU/L
- ALP [7]: 770 IU/L
- ALT [7]: 33.2 IU/L
- AST [7]: 69.6 IU/L
- BUN [7]: 18.6 mg/dL
- CRE [7]: 0.6 mg/dL
- Ca [7]: 10.6 mg/dL
- Cl [7]: 104.2 meq/L
- DBIL [7]: 0.01 mg/dL
- GLC [7]: 198 mg/dL
- IP [7]: 6.1 mg/dL
- K [7]: 4.3 meq/L
- LDH [7]: 112.8 IU/L
- Na [7]: 141.6 meq/L
- PL [7]: 148.8 mg/dL
- RALB [7]: 3.9 g/dL
- TBIL [7]: 0.3 mg/dL
- TC [7]: 67.8 mg/dL
- TG [7]: 150.4 mg/dL
- TP [7]: 6 g/dL
- gamma-GTP [7]: 0.8 IU/L
- ALP [8]: 601.2 IU/L
- ALT [8]: 28.6 IU/L
- AST [8]: 55.8 IU/L
- BUN [8]: 18.2 mg/dL
- CRE [8]: 0.5 mg/dL
- Ca [8]: 10.6 mg/dL
- Cl [8]: 107.2 meq/L
- DBIL [8]: 0.018 mg/dL
- GLC [8]: 179 mg/dL
- IP [8]: 5 mg/dL
- K [8]: 4.3 meq/L
- LDH [8]: 106.6 IU/L
- Na [8]: 140.4 meq/L
- PL [8]: 154.8 mg/dL
- RALB [8]: 4 g/dL
- TBIL [8]: 0.3 mg/dL
- TC [8]: 76.4 mg/dL
- TG [8]: 145.8 mg/dL
- TP [8]: 6.2 g/dL
